{
  "source": "paper PMC9516332",
  "about": "(Frontiers in Oncology, 2022)",
  "origin": "cited, not measured here",
  "key": {"[1]": {"molecular_target": "panel of 255 wild-type kinases (Homo sapiens, UniProt Q07912)", "details": "ACK kinase assay; 1 µmol/L single concentration; ref DOI: 10.1371/journal.pone.0092146; cited from earlier work"}, "[2]": {"molecular_target": "panel of 255 wild-type kinases (Homo sapiens, UniProt Q15303)", "sequence (Q15303 26-1308)": "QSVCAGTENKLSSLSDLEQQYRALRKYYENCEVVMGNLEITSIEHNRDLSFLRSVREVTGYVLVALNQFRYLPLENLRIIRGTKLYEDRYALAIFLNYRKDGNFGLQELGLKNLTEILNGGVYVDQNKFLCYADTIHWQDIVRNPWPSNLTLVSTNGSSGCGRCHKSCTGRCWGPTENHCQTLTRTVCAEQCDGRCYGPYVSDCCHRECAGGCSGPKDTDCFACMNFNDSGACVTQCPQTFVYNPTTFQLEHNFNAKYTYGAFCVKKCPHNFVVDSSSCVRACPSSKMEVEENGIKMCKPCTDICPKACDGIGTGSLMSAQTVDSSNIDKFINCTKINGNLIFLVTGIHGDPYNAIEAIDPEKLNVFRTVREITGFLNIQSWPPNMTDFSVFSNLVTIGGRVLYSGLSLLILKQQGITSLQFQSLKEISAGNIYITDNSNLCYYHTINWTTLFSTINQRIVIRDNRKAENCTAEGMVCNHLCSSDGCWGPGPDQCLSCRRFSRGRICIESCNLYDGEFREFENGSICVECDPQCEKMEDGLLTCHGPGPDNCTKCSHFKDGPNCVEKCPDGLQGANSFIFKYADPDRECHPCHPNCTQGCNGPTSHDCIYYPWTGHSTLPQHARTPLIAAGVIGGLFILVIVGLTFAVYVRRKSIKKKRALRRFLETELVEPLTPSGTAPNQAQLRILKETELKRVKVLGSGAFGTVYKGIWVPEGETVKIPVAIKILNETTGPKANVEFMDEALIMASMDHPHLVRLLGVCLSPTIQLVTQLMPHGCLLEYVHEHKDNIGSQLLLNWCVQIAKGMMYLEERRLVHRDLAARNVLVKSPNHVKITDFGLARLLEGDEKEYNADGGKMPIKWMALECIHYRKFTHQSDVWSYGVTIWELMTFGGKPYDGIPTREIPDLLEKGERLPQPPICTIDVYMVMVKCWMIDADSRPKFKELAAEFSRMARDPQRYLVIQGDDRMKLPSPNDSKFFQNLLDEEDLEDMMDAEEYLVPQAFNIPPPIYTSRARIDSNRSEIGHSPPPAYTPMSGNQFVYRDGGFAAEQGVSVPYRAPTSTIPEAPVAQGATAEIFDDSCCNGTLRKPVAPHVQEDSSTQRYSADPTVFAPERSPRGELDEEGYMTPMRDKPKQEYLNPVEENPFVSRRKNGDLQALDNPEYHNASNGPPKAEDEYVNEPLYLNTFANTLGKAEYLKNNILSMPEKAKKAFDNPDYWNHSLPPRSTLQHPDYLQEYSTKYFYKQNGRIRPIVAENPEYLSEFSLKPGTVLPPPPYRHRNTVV", "details": "kinase HER4; 1 µmol/L single concentration; ref DOI: 10.1371/journal.pone.0092146; cited from earlier work"}, "[3]": {"molecular_target": "T1, panel of 255 wild-type kinases (Homo sapiens, UniProt Q8TD19)", "T1 sequence (Q8TD19 1-979)": "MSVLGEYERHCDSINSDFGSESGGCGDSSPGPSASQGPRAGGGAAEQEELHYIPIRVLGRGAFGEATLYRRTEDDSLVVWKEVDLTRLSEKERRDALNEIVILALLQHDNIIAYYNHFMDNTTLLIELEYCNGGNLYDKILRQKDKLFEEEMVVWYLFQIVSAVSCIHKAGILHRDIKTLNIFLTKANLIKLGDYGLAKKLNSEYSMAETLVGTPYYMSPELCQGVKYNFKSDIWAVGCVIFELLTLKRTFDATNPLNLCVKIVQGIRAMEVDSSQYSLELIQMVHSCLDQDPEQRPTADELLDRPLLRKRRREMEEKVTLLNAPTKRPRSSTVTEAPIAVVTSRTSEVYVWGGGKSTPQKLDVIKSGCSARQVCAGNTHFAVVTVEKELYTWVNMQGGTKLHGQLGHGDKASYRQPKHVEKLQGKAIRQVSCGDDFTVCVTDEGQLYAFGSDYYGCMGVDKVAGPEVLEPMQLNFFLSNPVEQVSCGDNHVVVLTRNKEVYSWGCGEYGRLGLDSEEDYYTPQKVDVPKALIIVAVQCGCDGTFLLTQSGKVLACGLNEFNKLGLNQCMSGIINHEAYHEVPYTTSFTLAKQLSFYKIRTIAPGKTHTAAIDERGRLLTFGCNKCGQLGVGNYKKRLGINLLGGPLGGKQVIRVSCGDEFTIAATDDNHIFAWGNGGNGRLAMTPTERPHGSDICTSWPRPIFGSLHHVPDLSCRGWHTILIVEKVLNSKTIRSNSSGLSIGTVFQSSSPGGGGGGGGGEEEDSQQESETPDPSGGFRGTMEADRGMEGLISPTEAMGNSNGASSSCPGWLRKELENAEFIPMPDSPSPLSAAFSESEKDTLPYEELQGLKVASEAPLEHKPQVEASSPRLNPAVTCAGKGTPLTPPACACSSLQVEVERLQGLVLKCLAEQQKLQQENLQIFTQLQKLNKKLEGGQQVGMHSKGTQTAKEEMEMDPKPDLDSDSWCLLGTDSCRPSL", "details": "NEK9; 1 µmol/L single concentration; ref DOI: 10.1371/journal.pone.0092146; cited from earlier work"}, "[4]": {"molecular_target": "T2, panel of 255 wild-type kinases (Homo sapiens, UniProt P29320)", "T2 sequence (P29320 21-983)": "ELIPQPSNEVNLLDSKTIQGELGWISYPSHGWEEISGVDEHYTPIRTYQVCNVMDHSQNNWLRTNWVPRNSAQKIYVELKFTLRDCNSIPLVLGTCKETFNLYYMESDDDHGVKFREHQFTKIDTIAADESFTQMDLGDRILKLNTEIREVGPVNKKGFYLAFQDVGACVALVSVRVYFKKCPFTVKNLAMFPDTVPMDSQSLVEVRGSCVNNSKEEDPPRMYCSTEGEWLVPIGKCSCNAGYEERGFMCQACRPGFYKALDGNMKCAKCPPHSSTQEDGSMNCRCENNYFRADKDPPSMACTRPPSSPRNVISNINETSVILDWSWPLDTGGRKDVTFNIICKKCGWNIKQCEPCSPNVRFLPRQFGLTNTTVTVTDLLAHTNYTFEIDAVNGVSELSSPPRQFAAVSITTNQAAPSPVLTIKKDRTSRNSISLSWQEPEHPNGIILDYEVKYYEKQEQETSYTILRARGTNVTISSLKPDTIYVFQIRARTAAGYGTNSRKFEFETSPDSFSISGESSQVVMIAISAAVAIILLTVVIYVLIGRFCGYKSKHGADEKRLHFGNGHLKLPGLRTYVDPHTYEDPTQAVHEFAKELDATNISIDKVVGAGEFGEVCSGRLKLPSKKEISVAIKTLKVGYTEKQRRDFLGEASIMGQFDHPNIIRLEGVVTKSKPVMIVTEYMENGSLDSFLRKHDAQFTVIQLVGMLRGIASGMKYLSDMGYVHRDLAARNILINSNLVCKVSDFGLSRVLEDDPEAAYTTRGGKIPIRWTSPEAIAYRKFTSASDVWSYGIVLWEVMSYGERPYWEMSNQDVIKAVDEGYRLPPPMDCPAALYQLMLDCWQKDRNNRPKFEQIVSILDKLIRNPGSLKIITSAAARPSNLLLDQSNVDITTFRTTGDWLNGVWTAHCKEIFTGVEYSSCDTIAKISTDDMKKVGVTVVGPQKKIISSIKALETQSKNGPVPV", "details": "kinase EPHA3; 1 µmol/L single concentration; ref DOI: 10.1371/journal.pone.0092146; cited from earlier work"}, "[5]": {"molecular_target": "panel of 255 wild-type kinases (Homo sapiens, UniProt P21802)", "sequence (P21802 22-821)": "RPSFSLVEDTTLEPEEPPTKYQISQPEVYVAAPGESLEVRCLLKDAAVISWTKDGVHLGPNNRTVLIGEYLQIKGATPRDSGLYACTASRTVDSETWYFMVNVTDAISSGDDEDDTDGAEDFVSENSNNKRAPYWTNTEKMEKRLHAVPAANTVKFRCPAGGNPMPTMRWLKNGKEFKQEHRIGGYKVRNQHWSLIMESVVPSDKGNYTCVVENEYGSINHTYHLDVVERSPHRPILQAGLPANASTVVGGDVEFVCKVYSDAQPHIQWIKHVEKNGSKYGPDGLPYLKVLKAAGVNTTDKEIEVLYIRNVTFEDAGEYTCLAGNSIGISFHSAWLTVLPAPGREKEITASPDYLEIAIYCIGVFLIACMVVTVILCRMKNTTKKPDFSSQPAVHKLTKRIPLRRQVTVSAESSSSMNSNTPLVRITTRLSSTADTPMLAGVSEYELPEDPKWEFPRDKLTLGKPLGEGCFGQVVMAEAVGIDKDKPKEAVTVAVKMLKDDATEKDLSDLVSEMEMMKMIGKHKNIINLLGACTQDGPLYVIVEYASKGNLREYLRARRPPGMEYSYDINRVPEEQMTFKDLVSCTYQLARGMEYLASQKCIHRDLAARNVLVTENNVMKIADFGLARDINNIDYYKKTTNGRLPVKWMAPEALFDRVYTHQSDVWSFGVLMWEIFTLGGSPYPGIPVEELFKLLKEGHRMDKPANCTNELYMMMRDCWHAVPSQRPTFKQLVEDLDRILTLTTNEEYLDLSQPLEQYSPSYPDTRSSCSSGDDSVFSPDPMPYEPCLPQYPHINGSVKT", "details": "kinase FGFR2; 1 µmol/L single concentration; ref DOI: 10.1371/journal.pone.0092146; cited from earlier work"}, "[6]": {"molecular_target": "panel of 255 wild-type kinases (Homo sapiens, UniProt Q96RG2)", "sequence (Q96RG2 whole entry)": "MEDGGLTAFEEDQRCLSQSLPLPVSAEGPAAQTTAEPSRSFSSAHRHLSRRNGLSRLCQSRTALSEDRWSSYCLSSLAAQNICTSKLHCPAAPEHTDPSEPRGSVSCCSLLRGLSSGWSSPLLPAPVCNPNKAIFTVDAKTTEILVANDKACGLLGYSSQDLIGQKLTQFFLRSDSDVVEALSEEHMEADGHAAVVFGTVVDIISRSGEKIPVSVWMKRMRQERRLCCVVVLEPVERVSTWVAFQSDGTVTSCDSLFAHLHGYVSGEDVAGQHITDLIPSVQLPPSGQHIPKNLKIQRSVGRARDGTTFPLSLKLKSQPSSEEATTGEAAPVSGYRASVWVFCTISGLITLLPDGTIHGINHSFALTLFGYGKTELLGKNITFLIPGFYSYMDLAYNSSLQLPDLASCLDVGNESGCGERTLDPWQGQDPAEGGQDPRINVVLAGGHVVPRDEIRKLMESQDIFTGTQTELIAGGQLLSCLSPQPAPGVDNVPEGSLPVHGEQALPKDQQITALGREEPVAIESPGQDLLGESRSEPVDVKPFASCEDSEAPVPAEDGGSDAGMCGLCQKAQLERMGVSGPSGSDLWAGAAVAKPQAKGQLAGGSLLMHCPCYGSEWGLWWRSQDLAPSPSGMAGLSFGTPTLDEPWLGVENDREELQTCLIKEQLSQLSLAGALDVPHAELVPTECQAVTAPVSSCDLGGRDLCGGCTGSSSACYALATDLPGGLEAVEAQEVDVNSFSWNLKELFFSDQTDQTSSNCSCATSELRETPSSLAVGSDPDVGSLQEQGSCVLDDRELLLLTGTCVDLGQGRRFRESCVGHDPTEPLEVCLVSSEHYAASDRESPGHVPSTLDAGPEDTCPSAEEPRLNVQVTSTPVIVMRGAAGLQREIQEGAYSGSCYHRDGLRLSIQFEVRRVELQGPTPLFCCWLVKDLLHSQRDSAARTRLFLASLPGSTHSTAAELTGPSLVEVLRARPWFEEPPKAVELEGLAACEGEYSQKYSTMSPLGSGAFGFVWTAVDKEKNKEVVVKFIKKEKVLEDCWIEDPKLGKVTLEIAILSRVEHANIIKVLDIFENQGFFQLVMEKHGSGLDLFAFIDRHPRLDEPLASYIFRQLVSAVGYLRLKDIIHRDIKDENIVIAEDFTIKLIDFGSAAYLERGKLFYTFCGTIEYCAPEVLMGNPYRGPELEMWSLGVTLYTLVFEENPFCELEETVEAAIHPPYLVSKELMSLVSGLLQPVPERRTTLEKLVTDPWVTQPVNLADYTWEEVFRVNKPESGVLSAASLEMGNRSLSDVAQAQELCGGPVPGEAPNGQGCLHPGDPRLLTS", "details": "PASK; 1 µmol/L single concentration; ref DOI: 10.1371/journal.pone.0092146; cited from earlier work"}, "[7]": {"molecular_target": "panel of 255 wild-type kinases (Homo sapiens, UniProt P48730)", "sequence (P48730 whole entry)": "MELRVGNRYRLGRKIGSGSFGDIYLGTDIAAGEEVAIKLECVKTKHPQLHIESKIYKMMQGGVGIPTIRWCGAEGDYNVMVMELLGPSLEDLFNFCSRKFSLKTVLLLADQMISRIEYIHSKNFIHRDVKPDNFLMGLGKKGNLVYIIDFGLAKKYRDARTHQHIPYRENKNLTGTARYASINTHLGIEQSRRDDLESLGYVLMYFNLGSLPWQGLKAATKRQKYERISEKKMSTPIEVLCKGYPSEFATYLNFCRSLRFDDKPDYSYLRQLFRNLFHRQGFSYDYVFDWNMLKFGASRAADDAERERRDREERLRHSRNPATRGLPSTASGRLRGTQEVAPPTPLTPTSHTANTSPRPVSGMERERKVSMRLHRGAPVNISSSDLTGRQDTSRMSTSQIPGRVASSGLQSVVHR", "details": "kinase CK1δ; 1 µmol/L single concentration; ref DOI: 10.1371/journal.pone.0092146; cited from earlier work"}, "[8]": {"molecular_target": "panel of 255 wild-type kinases (Homo sapiens, UniProt P04626)", "details": "kinase HER2; 1 µmol/L single concentration; ref DOI: 10.1371/journal.pone.0092146; cited from earlier work"}, "[9]": {"molecular_target": "panel of 255 wild-type kinases (Homo sapiens, UniProt P11362)", "sequence (P11362 22-822)": "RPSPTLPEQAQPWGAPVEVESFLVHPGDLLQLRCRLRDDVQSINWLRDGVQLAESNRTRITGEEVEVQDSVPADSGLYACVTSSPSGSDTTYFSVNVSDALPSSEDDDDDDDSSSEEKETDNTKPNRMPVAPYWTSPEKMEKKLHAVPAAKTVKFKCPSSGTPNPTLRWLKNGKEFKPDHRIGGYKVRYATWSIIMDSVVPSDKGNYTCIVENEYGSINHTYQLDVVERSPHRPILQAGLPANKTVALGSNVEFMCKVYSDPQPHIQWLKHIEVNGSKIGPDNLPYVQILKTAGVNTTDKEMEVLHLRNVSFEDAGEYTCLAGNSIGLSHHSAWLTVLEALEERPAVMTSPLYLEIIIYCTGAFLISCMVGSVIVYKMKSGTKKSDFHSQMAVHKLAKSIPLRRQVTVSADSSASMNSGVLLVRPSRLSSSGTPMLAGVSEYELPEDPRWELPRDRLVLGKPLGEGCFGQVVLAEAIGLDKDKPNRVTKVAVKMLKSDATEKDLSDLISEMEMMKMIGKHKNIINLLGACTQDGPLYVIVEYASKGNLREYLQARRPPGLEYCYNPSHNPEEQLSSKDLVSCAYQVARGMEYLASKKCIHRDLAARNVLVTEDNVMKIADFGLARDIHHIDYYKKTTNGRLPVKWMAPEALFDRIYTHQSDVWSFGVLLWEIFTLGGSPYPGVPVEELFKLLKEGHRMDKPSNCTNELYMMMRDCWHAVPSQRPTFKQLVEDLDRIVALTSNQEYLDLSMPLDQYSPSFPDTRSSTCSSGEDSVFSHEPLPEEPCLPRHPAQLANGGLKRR", "details": "kinase FGFR1; 1 µmol/L single concentration; ref DOI: 10.1371/journal.pone.0092146; cited from earlier work"}},
  "data": [
    {"smiles": "CCCS(=O)(=O)Nc1ccc(F)c(C(=O)c2c[nH]c3ncc(-c4ccc(Cl)cc4)cc23)c1F", "note": "[vemurafenib]", "values": [
      {"measurement": "%-inhibition ACK", "setting": "[1]", "value": 40, "unit": "%"},
      {"measurement": "%-inhibition at 1 µmol/L, HER4", "setting": "[2]", "value": 11, "unit": "%"},
      {"measurement": "%-inhibition, NEK9", "setting": "[3]", "value": -2.2, "unit": "%"},
      {"measurement": "%-inhibition at 1 µmol/L, EPHA3", "setting": "[4]", "value": -7.52, "unit": "%"},
      {"measurement": "%-inhibition at 1 µmol/L, FGFR2", "setting": "[5]", "value": 10, "unit": "%"},
      {"measurement": "%-inhibition, PASK", "setting": "[6]", "value": 2.35, "unit": "%"},
      {"measurement": "%-inhibition at 1 µmol/L, CK1δ", "setting": "[7]", "value": -3, "unit": "%"},
      {"measurement": "%-inhibition at 1 µmol/L, HER2", "setting": "[8]", "value": 2, "unit": "%"},
      {"measurement": "%-inhibition at 1 µmol/L, FGFR1", "setting": "[9]", "value": 21, "unit": "%"}
    ]}
  ]
}
